Values joined by “and” are separate entries in the source; they are usually repeats but may differ in a detail not shown here. Identical values can stand only once. Like-named read-outs stand apart in the source and are kept apart here. A value given as a limit tells only on which side of the number the result lay.

Assay [1] deals with U87MG cells. In words: Matrigel cell invasion assay, U87MG. The assay is classed as cell-based, human. As to conditions: 24 h of treatment; for inhibition at 10 µM: concentration tested 10 µM. Here is the method: (§1) Cells were pre-treated with the indicated drug concentrations in complete medium for 24 h. Then, cells were harvested, resuspended in serum-free medium, and transferred (2.5 × 10^4 cells per filter) to the upper chamber of 24-well Transwell plates (Costar, Corning Inc., Corning, NY) previously coated with Growth Factor Reduced Matrigel (BD Biosciences, San Jose, CA). The same drug concentration used for cell pre-treatment was added to both the upper and lower chambers. After 24 h of incubation, cells that invaded the Matrigel were stained with SRB and then counted through a microscope at 40× −100× magnification depending on cell density. Data were expressed as the % inhibition of cell invasion, with respect to cell invasion in the absence of drugs.

For assay [2], the system named is HT1080 cells. In words: Matrigel cell invasion assay, HT1080. The assay is classed as cell-based, human. The following applies: 24 h of treatment; for inhibition at 10 µM: concentration tested 10 µM. Here is the method: as §1
In assay [3] the test system is U2OS cells. In words: Matrigel cell invasion assay, U2OS. Format: cell-based, human. As to conditions: 24 h of treatment; for inhibition at 10 µM: concentration tested 10 µM. Here is the method:
as §1

Assay [4] deals with human GS3 heparanase (Homo sapiens, UniProt Q9Y251). In words: fondaparinux assay of heparanase enzymatic activity (WST-1 colorimetric). Format: biochemical. The following applies: for IC50: fondaparinux assay on human GS3 heparanase, mean of triplicates, read-out: IC50 (µM) ± SD, heparanase inhibitory activity; for % inhib @2.5 M ± SD / % inhib @25 M ± SD: Table S1; for % inhib @2.5 M ± SD: fixed concentration 2.5 µM (2.5 M [sic]); for % inhib @25 M ± SD: fixed concentration 25 µM (25 M [sic]). The source says:
To determine the activity of the heparanase inhibitors, a homogeneous assay based on the cleavage of the synthetic heparin oligosaccharide fondaparinux (Arixtra; Aspen) was used. The assay measures colorimetrically the appearance of the disaccharide product of heparanase-catalysed fondaparinux cleavage using the tetrazolium salt WST-1. The assay was essentially performed as described[39] with minor modifications. Briefly, Nunc 96-well (Thermo Fisher Scientific) plates were pre-treated with a solution of 4% BSA (bovine serum albumin, Sigma-Aldrich) in phosphate-buffered saline containing 0.05% Tween 20 (PBST), for 2 h at 37 °C, and then washed three times with PBST. […] The IC50 value for each compound was calculated by GraphPad software. Finally, the measurements were corrected by subtracting both the reagent background and the inner absorbance value of test compound.
Supporting Table S1 reports the structures of the fifty-five compounds purchased and tested, with information, for each compound, on the database from which it was retrieved, the reference inhibitor used to retrieve it and the similarity value with the reference inhibitor.
In general terms: Tetrazolium dyes change colour on reduction, which living cells bring about.

For assay [5], the system named is HT1080 (fibrosarcoma) cells. In words: proliferation assay (sulforhodamine B), HT1080. Format: cell-based, human. As to conditions: HT1080, 72 h, range 10–0.2 µM, SRB, read-out: IC50, inhibition of cell proliferation. On the procedure: (§2) HT1080 (fibrosarcoma), U87MG (glioblastoma), and U2OS (osteosarcoma) human cell lines were purchased from the American Type Culture Collection (ATCC; Manassas, VA) and maintained according to the manufacturer’s recommendations. Briefly, HT1080 and U87MG were grown in modified Eagle medium (Thermo Fisher Scientific), while U2OS cells were grown in McCoy’s 5a medium (Thermo Fisher Scientific), all supplemented with 10% FCS (Thermo Fisher Scientific), 100 U/mL penicillin, and 100 μg/mL streptomycin (Thermo Fisher Scientific) and 2 mM L-glutamine (Thermo Fisher Scientific). Cell lines were maintained at 37 °C with a humidified 5% CO2 atmosphere.
(§3) HT1080, U87MG, and U2OS exponentially growing cells were seeded into 96-well plates and then, 24 h later, treated for 72 h with several dilutions of test compounds in the range 10 − 0.2 μM. Inhibition of cell proliferation was measured by means of a classical sulforhodamine B (SRB) assay[40] performed in triplicate.

Assay [6] has as its system U87MG (glioblastoma) cells. In words: proliferation assay (sulforhodamine B), U87MG. The assay is classed as cell-based, human. As to conditions: 72 h, range 10–0.2 µM, SRB, read-out: IC50, inhibition of cell proliferation. On the procedure:
as §2, §3

Assay [7] relates to U2OS (osteosarcoma) cells. In words: proliferation assay (sulforhodamine B), U2OS. Format: cell-based, human. The following applies: 72 h, range 10–0.2 µM, SRB, read-out: IC50, inhibition of cell proliferation. On the procedure: as §2, §3
Assay [8] relates to FGF-1, FGF-2, VEGF, MMP-9 and heparanase mRNA in HT1080 cells. In words: real-time qPCR of angiogenesis-related genes and heparanase in HT1080 cells. The following applies: 1 µM, 24 h, q-PCR. The assay is classed as cell-based, human. On the procedure:
Total RNA was extracted from HT1080 cells, upon 24 h of treatment with test compounds (1 µM) and then retrotranscribed using the iScript Advanced cDNA Synthesis Kit for RT-qPCR (Bio-Rad Laboratories Inc., Hercules, CA) according to the manufacturer’s instructions. Real time quantitative PCR analysis was performed using SsoAdvanced Universal SYBR Green Supermix (Bio- Rad Laboratories Inc., Hercules, CA) and the following PrimePCR SYBR Green Assays: qHsaCID0015228 (heparanase), qHsaCED0002206 (FGF-1), qHsaCID0015510 (FGF-2), qHsaCID0011597 (MMP-9), and qHsaCED0043454 (VEGF-A) (Bio-Rad Laboratories Inc., Hercules, CA). The 7900HT Sequence Detection System instrument and software (Applied Biosystems) were used to quantify the relative expression of the target genes. Tests were performed in triplicate.
Background: Quantitative PCR measures a nucleic acid by following its amplification.

In assay [9] the target is heparanase. As to conditions: literature value of reference inhibitor 6; read-out: reported IC50; cited from earlier work.

human GS3 heparanase, sequence (Q9Y251 other isoform, or with tags, fused parts or gaps): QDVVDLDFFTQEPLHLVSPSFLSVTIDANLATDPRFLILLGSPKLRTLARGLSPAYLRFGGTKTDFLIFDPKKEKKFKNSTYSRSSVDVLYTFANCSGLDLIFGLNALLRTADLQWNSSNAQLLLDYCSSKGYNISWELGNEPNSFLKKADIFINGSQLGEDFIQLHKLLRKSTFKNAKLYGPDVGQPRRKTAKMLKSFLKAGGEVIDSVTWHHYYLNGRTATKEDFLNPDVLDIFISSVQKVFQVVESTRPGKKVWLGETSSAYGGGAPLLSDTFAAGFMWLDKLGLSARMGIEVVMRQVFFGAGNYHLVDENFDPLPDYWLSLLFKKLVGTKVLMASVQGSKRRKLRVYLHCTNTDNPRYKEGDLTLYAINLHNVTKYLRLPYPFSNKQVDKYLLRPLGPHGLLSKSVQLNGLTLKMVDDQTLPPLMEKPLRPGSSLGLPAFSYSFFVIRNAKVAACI

A word on the inhibition: it is the drop in the measured response relative to a control, in per cent. Read a high inhibition as strong suppression. In the case of `COc1ccc(C(=O)Nc2ccc(CNc3ccc(-c4nc5ccccc5[nH]4)cc3)cc2)cc1Br` [Compound 7, reference compound], the inhibition at 1 µM was 78 ± 3% in [1] (Homo sapiens, U-87 MG, concentration tested 1.0 µM); 88 ± 2% in [2] (Homo sapiens, HT-1080, concentration tested 1.0 µM); 82 ± 2% in assay [3] (Homo sapiens, U2OS, concentration tested 1.0 µM).

Take `O=C(Nc1cccc(-c2nc3ccccc3[nH]2)c1)c1ccc(Oc2ccc(C(=O)Nc3cccc(-c4nc5ccccc5[nH]4)c3)cc2)cc1` [Compound 29]: the inhibition at 2.5 µM in [1] (Homo sapiens, U-87 MG, concentration tested 2.5 µM) came to 15 ± 3%; in assay [2] (Homo sapiens, HT-1080, concentration tested 2.5 µM), 29 ± 4%; in assay [3] (Homo sapiens, U2OS, concentration tested 2.5 µM), 18 ± 3%. For the same compound, the IC50 is < 0.5 µM and 0.38 µM in assay [4]; over 10 µM in [5] (Homo sapiens, HT-1080); over 10 µM in assay [6] (Homo sapiens, U-87 MG); over 10 µM in assay [7] (Homo sapiens).

With `O=C(Nc1ccc(-c2nc3ccccc3[nH]2)cc1)c1ccc(C(=O)Nc2ccc(-c3nc4ccccc4[nH]3)cc2)cc1` [Compound 61], in [1] (concentration tested 2.5 µM), the “Invasion assay inhibition (%) U87MG” value worked out at 43 ± 5%. Besides, the “effect on transcription of heparanase” value in assay [8] is reported as “not or very weakly affected”. Besides, the “effect on transcription of proangiogenic genes (FGF-1, FGF-2, VEGF, MMP-9)” value in assay [8] is “significant inhibitory effect”. Also, the IC50 in [5], in [6] and in assay [7] was over 10 µM throughout. Besides, the “Invasion assay inhibition (%) HT1080” value in assay [2] (concentration tested 2.5 µM) stood at 41 ± 3%. The “Invasion assay inhibition (%) U2OS” value in assay [3] (concentration tested 2.5 µM) was found to be 80 ± 2%.

`COc1cc(/N=N/c2cc(S(=O)(=O)O)cc3cc(S(=O)(=O)O)cc(O)c23)c(C)cc1NC(=O)Nc1cc(C)c(/N=N/c2cc(S(=O)(=O)O)cc3cc(S(=O)(=O)O)cc(O)c23)cc1OC` [Compound 16]: the inhibition at 10 µM in [1] (Homo sapiens, U-87 MG) was 10 ± 4%; in assay [2] (Homo sapiens, HT-1080), 93 ± 1%; in assay [3] (Homo sapiens, U2OS), under 0%. For the same compound, the IC50 in assay [4] was < 0.5 µM and 0.37 µM; in assay [5] (Homo sapiens, HT-1080), over 10 µM; in assay [6] (Homo sapiens, U-87 MG) it was over 10 µM; in assay [7] (Homo sapiens), over 10 µM.

For the compound `O=C(O)c1ccc2c(c1)C(=O)N(c1ccc(NC(=O)c3cccc(C(=O)Nc4ccc(N5C(=O)c6ccc(C(=O)O)cc6C5=O)cc4Cl)c3)c(Cl)c1)C2=O` [Compound 63], the “Invasion assay inhibition (%) U87MG” value in assay [1] (concentration tested 2.5 µM) was determined as 45 ± 4%. Further, the “effect on transcription of heparanase” value in assay [8] is on record as “not or very weakly affected”. In [8], the “effect on transcription of proangiogenic genes (FGF-1, FGF-2, VEGF, MMP-9)” value is “significant inhibitory effect”. In addition, the IC50 in assay [5], in assay [6] and in [7] was over 10 µM each time. The “Invasion assay inhibition (%) HT1080” value in [2] (concentration tested 2.5 µM) is 39 ± 6%. Besides, the “Invasion assay inhibition (%) U2OS” value in assay [3] (concentration tested 2.5 µM) was 75 ± 3%.

Turning to `Cc1ccc(C(=O)Nc2ccc(S(=O)(=O)O)c3cc(S(=O)(=O)O)cc(S(=O)(=O)O)c23)cc1NC(=O)c1cccc(NC(=O)Nc2cccc(C(=O)Nc3cc(C(=O)Nc4ccc(S(=O)(=O)O)c5cc(S(=O)(=O)O)cc(S(=O)(=O)O)c45)ccc3C)c2)c1` [suramin, reference compound], the inhibition at 10 µM in assay [1] (Homo sapiens, U-87 MG) was under 0%; in [2] (Homo sapiens, HT-1080), 22 ± 5%; in assay [3] (Homo sapiens, U2OS) it was under 0%. Besides, the IC50 in [5] (Homo sapiens, HT-1080) was over 10 µM; in [6] (Homo sapiens, U-87 MG), over 10 µM; in assay [7] (Homo sapiens) it was over 10 µM.

On to `O=C(O)Cc1ccc2oc(-c3ccc(NC(=O)Nc4ccc(-c5nc6cc(CC(=O)O)ccc6o5)cc4F)c(F)c3)nc2c1` [Compound 6], for which the IC50 in assay [9] was 0.18 µM.

As to `O=C(O)c1cccc(NC(=O)c2ccc(S(=O)(=O)c3ccc(C(=O)Nc4cccc(C(=O)O)c4)cc3)cc2)c1` [Compound 54], in assay [4], the “% inhib @2.5 M ± SD” value is listed as 22 ± 7% and the “% inhib @25 M ± SD” value came out at 72 ± 1%.

Regarding `O=C(O)c1ccc(Oc2ccc3c(c2)C(=O)N(c2ccc(S(=O)(=O)c4ccc(N5C(=O)c6ccc(Oc7ccc(C(=O)O)cc7)cc6C5=O)cc4)cc2)C3=O)cc1` [Compound 27], in assay [4], the “% inhib @2.5 M ± SD” value was “Not active” and the “% inhib @25 M ± SD” value was determined as 70 ± 6%.

Source of the values: paper PMC7534336, “New classes of potent heparanase inhibitors from ligand-based virtual screening” (Journal of Enzyme Inhibition and Medicinal Chemistry, 2020).
